Values of other authors, collected in patent US9889132B2, “Pharmaceutical compositions for the treatment of psoriasis” (Special Product's Line S.p.A., priority 2014, dated 2018).

Assays:
[1] = system: mouse
[2] = system: mammal cells

For `COc1cc(Nc2nc(C)cc(C)n2)cc(OC)c1OC` [4,6-dimethyl-N-(3,4,5-trimethoxyphenyl)pyrimidin-2-amine], the LD50 i.p. ([1]; i.p.) is given as 780 mg/kg, the LD50 per os ([1]; per os) is given as 4110 mg/kg and the antimitotic action [2] is given as “considerable antimitotic action”.
